Paper PMC10702058, “Phase I dose escalation study and pilot efficacy analysis of LXI-15029, a novel mTOR dual inhibitor, in Chinese subjects with advanced malignant solid tumors” (BMC Cancer, 2023)
Entries after “also recorded” stand apart in the source; their conditions may differ. Where two headings read alike, the source gives them in different places.

How the values were obtained:
[1] = tested on: human renal carcinoma, gastric cancer, breast cancer, and lung cancer xenografts; settings: cited from earlier work
[2] = tested on: advanced malignant solid tumors; experiment: Investigator-assessed antitumor effect (RECIST 1.1: ORR, DCR, PFS)
Protocol: All safety, tolerance, PK, and antitumor data from each dose group were tabulated and summarized according to the statistical analysis plan. The statistical analysis of the study was descriptive. The continuous variables were described as mean ± standard deviation or median (minimum, maximum). […] The categorical variables were described as n (%). PFS was summarized using the Kaplan–Meier method. […] All data processing, summaries, and analyses were performed using SAS 9.4 (SAS Institute, Cary, NC, USA).

[3] = Plasma pharmacokinetics of LXI-15029 (LC-MS/MS, non-compartmental analysis); type: in vivo, human
Protocol: Blood samples for PK analysis of LXI-15029 were collected on day 1 (pre-dose, 20 min, 40 min, 1 h, 1.5 h, 2 h, 3 h, 4 h, 6 h, 8 h, 12 h, 24 h, and 48 h), cycle 1 day 8 (pre-dose), cycle 1 day 15 (pre-dose), and cycle 1 day 28 (pre-dose, 20 min, 40 min, 1 h, 1.5 h, 2 h, 3 h, 4 h, 6 h, 8 h, and 12 h). The blood samples were stored at -70°C until testing. The concentration of LXI-15029 in plasma was measured using the validated liquid chromatography-tandem mass spectrometry (LC–MS/MS) method. The concentration–time information of LXI-15029 was summarized based on pre-dose and post-dose data of each patient, to explore the linearity of exposure with single dose and steady-state situations, the time to reach steady state and the predictability of single to multiple doses PK. PK parameters were calculated separately for single and repeated doses using descriptive statistics. PK analysis was performed by Covance Central Laboratory using the validated software Phoenix WinNonlin Version 8.1 (Pharsight, Mountain View, CA). A standard non-compartmental method was used to calculate the peak plasma concentration (Cmax), time to reach the Cmax (tmax), the total area under the concentration–time curve (AUC0-∞), and the elimination half-life (t1/2).

[4] = 150-mg BID group, compared with preclinical data
[5] = human, plasma, oral, multiple dose, cycle 1 day 28, 10 mg BID (n = 3), geometric mean (coefficient of variation)
[6] = human, plasma, oral, multiple dose, cycle 1 day 28, 20 mg BID (n = 3), geometric mean (coefficient of variation)

Question: Which “dose dependence of antitumor activity” value ([1]; dose range of 5–40 mg/kg, in vivo preclinical data) does the source give for CNC(=O)c1cccc(-c2ccc3c(N4C5CCC4COC5)nc(N4CCOC[C@@H]4C)nc3n2)c1 [LXI-15029] here?
Answer: dose-dependent

Question: And the “antitumor activity in xenograft models” value ([1]; tumors with abnormal regulation in the mTOR signaling pathway, ref [25], [26])?
Answer: selective antitumor effect; also recorded: selective antitumor activity

Question: And the “disease control rate (DCR)” value ([2]; 8/20 evaluable, 95% CI 21.7–60.6)?
Answer: 40%

Question: What about the “complete or partial response (CR or PR)” value ([2]; 20 evaluable participants) of the same compound?
Answer: No participants achieved CR or PR

Question: And the median progression-free survival ([2]; evaluable patients, overall, from first dose)?
Answer: 29 days

Question: What about the “relationship between Ctrough and median PFS or DCR” value ([2]; exposure-efficacy analysis) of the same compound?
Answer: no relationship was found

Question: And the DCR-dose correlation ([2]; in vivo)?
Answer: No DCR-dose correlation was observed

Question: And the “patients with stable disease” value ([2]; of 20 evaluable)?
Answer: Eight

Question: And the “duration of SD” value ([2]; one participant with fibrosarcoma, 20 mg BID)?
Answer: 344 days

Question: What about the “median PFS” value ([2]; patients with breast cancer, 95% CI: 0.89–4.63) of the same compound?
Answer: 0.95 months

Question: And the “median PFS” value ([2]; patients with sarcoma, 95% CI: 0.92–11.33)?
Answer: 0.97 months

Question: What about the “increase of Cmax and AUC versus dose proportionality” value ([3]; 10 to 150 mg, single dose day 1 and cycle 1 day 28) of the same compound?
Answer: greater than the dose proportionality

Question: What about the “exposure relative to the NOAEL in dogs” value [3, 4] of the same compound?
Answer: fivefold higher

Question: What about the “exposure relative to the highest non-severely toxic dose (HNSTD) found in rats” value [3, 4] of the same compound?
Answer: threefold higher

Question: What about the “Cmax ss versus dose” value ([3]; cycle 1 day 28, 10 to 150 mg) of the same compound?
Answer: increased with the dose increase

Question: What about the “Cmin ss, Cav ss, and AUCss versus dose” value ([3]; cycle 1 day 28, 10 to 150 mg, except for 80 mg) of the same compound?
Answer: increased with the dose increase

Question: What about the “exposure (Cmax and AUC) versus dose” value ([3]; day 1, 10 to 150 mg, except for 80 mg) of the same compound?
Answer: increased with the dose increase

Question: And the concentration at 28 day ([3]; human, plasma, oral, 10 mg BID, multiple dose, cycle 1 day 28, 10 mg BID (n = 3), geometric mean (coefficient of variation), read-out: Cav ss)?
Answer: 15.9 ng/mL

Question: What about the Tmax at 28 day ([3]; human, plasma, oral, 10 mg, multiple dose, cycle 1 day 28, 10 mg BID (n = 3), median (min, max)) of the same compound?
Answer: 1.02 h

Question: What about the half-life ([3]; human, plasma, oral, 10 mg, single dose, cycle 1 day 1, 10 mg BID (n = 3), arithmetic mean ± standard deviation, read-out: t1/2 (converted)) of the same compound?
Answer: 0.95 ± 0.205 h

Question: What about the Tmax ([3]; human, plasma, oral, 10 mg, single dose, cycle 1 day 1, 10 mg BID (n = 3), median (min, max), read-out: Tmax) of the same compound?
Answer: 0.98 h

Question: What about the concentration at 28 day ([3]; human, plasma, oral, 20 mg BID, multiple dose, cycle 1 day 28, 20 mg BID (n = 3), geometric mean (coefficient of variation), read-out: Cav ss) of the same compound?
Answer: 71.9 ng/mL

Question: And the concentration at 28 day ([3]; human, plasma, oral, 20 mg BID, multiple dose, cycle 1 day 28, 20 mg BID (n = 3), geometric mean (coefficient of variation), read-out: Cmin ss)?
Answer: 1.61 ng/mL

Question: And the Tmax at 28 day ([3]; human, plasma, oral, 20 mg, multiple dose, cycle 1 day 28, 20 mg BID (n = 3), median (min, max))?
Answer: 1.47 h

Question: What about the half-life ([3]; human, plasma, oral, 20 mg, single dose, cycle 1 day 1, 20 mg BID (n = 3), arithmetic mean ± standard deviation, read-out: t1/2 (converted)) of the same compound?
Answer: 1.47 ± 0.268 h

Question: And the Tmax ([3]; human, plasma, oral, 20 mg, single dose, cycle 1 day 1, 20 mg BID (n = 3), median (min, max), read-out: Tmax)?
Answer: 1 h

Question: And the concentration at 28 day ([3]; human, plasma, oral, 40 mg BID, multiple dose, cycle 1 day 28, 40 mg BID (n = 3), geometric mean (coefficient of variation), read-out: Cav ss)?
Answer: 139 ng/mL

Question: And the concentration at 28 day ([3]; human, plasma, oral, 40 mg BID, multiple dose, cycle 1 day 28, 40 mg BID (n = 3), geometric mean (coefficient of variation), read-out: Cmin ss)?
Answer: 3.74 ng/mL

Question: What about the Tmax at 28 day ([3]; human, plasma, oral, 40 mg, multiple dose, cycle 1 day 28, 40 mg BID (n = 3), median (min, max)) of the same compound?
Answer: 0.67 h

Question: And the half-life ([3]; human, plasma, oral, 40 mg, single dose, cycle 1 day 1, 40 mg BID (n = 3), arithmetic mean ± standard deviation, read-out: t1/2 (converted))?
Answer: 1.13 ± 0.324 h

Question: What about the AUC(0-t) ([3]; human, plasma, oral, 40 mg, single dose, cycle 1 day 1, 40 mg BID (n = 3), geometric mean (coefficient of variation)) of the same compound?
Answer: 1680 ng·h/mL

Question: What about the Tmax ([3]; human, plasma, oral, 40 mg, single dose, cycle 1 day 1, 40 mg BID (n = 3), median (min, max), read-out: Tmax) of the same compound?
Answer: 0.68 h

Question: And the concentration at 28 day ([3]; human, plasma, oral, 60 mg BID, multiple dose, cycle 1 day 28, 60 mg BID (n = 4), geometric mean (coefficient of variation), read-out: Cav ss)?
Answer: 477 ng/mL

Question: And the concentration at 28 day ([3]; human, plasma, oral, 60 mg BID, multiple dose, cycle 1 day 28, 60 mg BID (n = 4), geometric mean (coefficient of variation), read-out: Cmin ss)?
Answer: 35 ng/mL

Question: And the Tmax at 28 day ([3]; human, plasma, oral, 60 mg, multiple dose, cycle 1 day 28, 60 mg BID (n = 4), median (min, max))?
Answer: 0.98 h

Question: And the half-life ([3]; human, plasma, oral, 60 mg, single dose, cycle 1 day 1, 60 mg BID (n = 4), arithmetic mean ± standard deviation, read-out: t1/2 (converted))?
Answer: 2 ± 0.599 h

Question: And the Tmax ([3]; human, plasma, oral, 60 mg, single dose, cycle 1 day 1, 60 mg BID (n = 4), median (min, max), read-out: Tmax)?
Answer: 1.25 h

Question: And the concentration at 28 day ([3]; human, plasma, oral, 80 mg BID, multiple dose, cycle 1 day 28, 80 mg BID (n = 4), geometric mean (coefficient of variation), read-out: Cav ss)?
Answer: 435 ng/mL

Question: And the concentration at 28 day ([3]; human, plasma, oral, 80 mg BID, multiple dose, cycle 1 day 28, 80 mg BID (n = 4), geometric mean (coefficient of variation), read-out: Cmin ss)?
Answer: 6.41 ng/mL

Question: What about the Tmax at 28 day ([3]; human, plasma, oral, 80 mg, multiple dose, cycle 1 day 28, 80 mg BID (n = 4), median (min, max)) of the same compound?
Answer: 1.08 h

Question: What about the half-life ([3]; human, plasma, oral, 80 mg, single dose, cycle 1 day 1, 80 mg BID (n = 4), arithmetic mean ± standard deviation, read-out: t1/2 (converted)) of the same compound?
Answer: 1.33 ± 0.174 h

Question: What about the Tmax ([3]; human, plasma, oral, 80 mg, single dose, cycle 1 day 1, 80 mg BID (n = 4), median (min, max), read-out: Tmax) of the same compound?
Answer: 0.87 h

Question: What about the concentration at 28 day ([3]; human, plasma, oral, 110 mg BID, multiple dose, cycle 1 day 28, 110 mg BID (n = 3), geometric mean (coefficient of variation), read-out: Cav ss) of the same compound?
Answer: 1080 ng/mL

Question: And the concentration at 28 day ([3]; human, plasma, oral, 110 mg BID, multiple dose, cycle 1 day 28, 110 mg BID (n = 3), geometric mean (coefficient of variation), read-out: Cmin ss)?
Answer: 152 ng/mL

Question: What about the Tmax ([3]; human, plasma, oral, 110 mg, multiple dose, cycle 1 day 28, 110 mg BID (n = 3), median (min, max), read-out: Tmax ss) of the same compound?
Answer: 0.67 h

Question: What about the half-life ([3]; human, plasma, oral, 110 mg, single dose, cycle 1 day 1, 110 mg BID (n = 3), arithmetic mean ± standard deviation, read-out: t1/2 (converted)) of the same compound?
Answer: 1.48 ± 0.531 h

Question: And the Tmax ([3]; human, plasma, oral, 110 mg, single dose, cycle 1 day 1, 110 mg BID (n = 3), median (min, max), read-out: Tmax)?
Answer: 0.7 h

Question: And the concentration at 28 day ([3]; human, plasma, oral, 150 mg BID, multiple dose, cycle 1 day 28, 150 mg BID (n = 4), geometric mean (coefficient of variation), read-out: Cav ss)?
Answer: 2120 ng/mL

Question: What about the concentration at 28 day ([3]; human, plasma, oral, 150 mg BID, multiple dose, cycle 1 day 28, 150 mg BID (n = 4), geometric mean (coefficient of variation), read-out: Cmin ss) of the same compound?
Answer: 452 ng/mL

Question: And the Tmax ([3]; human, plasma, oral, 150 mg, multiple dose, cycle 1 day 28, 150 mg BID (n = 4), median (min, max), read-out: Tmax ss)?
Answer: 0.98 h

Question: What about the half-life ([3]; human, plasma, oral, 150 mg, single dose, cycle 1 day 1, 150 mg BID (n = 4), arithmetic mean ± standard deviation, read-out: t1/2 (converted)) of the same compound?
Answer: 1.94 ± 0.706 h

Question: And the Tmax ([3]; human, plasma, oral, 150 mg, single dose, cycle 1 day 1, 150 mg BID (n = 4), median (min, max), read-out: Tmax)?
Answer: 0.82 h

Question: What about the half-life ([3]; human, plasma, oral, after multiple dosings, read-out: arithmetic mean of t1/2 across dose cohorts) of the same compound?
Answer: 1.13 to 3.26 h

Question: And the half-life ([3]; human, plasma, oral, after single dosing, read-out: arithmetic mean of t1/2 across dose cohorts)?
Answer: 0.95 to 2 h

Question: And the Tmax ([3]; human, plasma, oral, cycle 1 day 28, dose range 10 to 150 mg, read-out: median range of Tmax ss)?
Answer: 0.67 to 1.47 h

Question: What about the Tmax ([3]; human, plasma, oral, single dose on day 1, across dose groups, read-out: median range of Tmax) of the same compound?
Answer: 0.68 to 1.25 h

Question: What about the AUC [3, 5] of the same compound?
Answer: 191 ng·h/mL

Question: What about the Cmax at 28 day [3, 5] of the same compound?
Answer: 115 ng/mL

Question: And the AUC [3, 6]?
Answer: 863 ng·h/mL

Question: What about the Cmax at 28 day [3, 6] of the same compound?
Answer: 350 ng/mL
